The term inhibition denotes the drop in the measured response relative to a control, in per cent.

The results in this text go back to patent US8088763B2 (priority 2004, dated 2012).

The target of one test is T1, 5HT-uptake (Rattus norvegicus, UniProt P31652).
T1 construct: synaptosomes were freshly isolated from areas of rats' brains
In words: biochemical. As to conditions: for inhibition at 10 µM: read-out: 5HT-uptake [10 μM], % inhibition.

The next test deals with NA-uptake (Rattus norvegicus, UniProt Q63380). Description: biochemical. As to conditions: for inhibition at 10 µM: read-out: NA-uptake [10 μM], % inhibition.
Chain of NA-uptake (Q63380 1-617): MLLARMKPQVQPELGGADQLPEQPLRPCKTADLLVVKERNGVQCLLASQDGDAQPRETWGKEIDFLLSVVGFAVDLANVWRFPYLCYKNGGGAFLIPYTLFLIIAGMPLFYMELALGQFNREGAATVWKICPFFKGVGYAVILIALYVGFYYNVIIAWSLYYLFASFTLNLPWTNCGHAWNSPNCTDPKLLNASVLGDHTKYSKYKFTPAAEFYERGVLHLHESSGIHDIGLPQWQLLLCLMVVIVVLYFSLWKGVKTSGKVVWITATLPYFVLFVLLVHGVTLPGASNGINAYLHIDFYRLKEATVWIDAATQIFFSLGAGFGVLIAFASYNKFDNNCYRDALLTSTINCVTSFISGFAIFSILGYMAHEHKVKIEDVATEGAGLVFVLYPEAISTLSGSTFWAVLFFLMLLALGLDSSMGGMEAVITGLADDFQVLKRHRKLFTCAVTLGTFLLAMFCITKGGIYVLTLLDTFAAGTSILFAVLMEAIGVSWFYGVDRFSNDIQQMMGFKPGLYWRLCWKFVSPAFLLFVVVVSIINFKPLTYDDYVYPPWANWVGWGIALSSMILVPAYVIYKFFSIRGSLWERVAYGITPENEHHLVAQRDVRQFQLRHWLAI

T1 sequence (P31652 whole entry): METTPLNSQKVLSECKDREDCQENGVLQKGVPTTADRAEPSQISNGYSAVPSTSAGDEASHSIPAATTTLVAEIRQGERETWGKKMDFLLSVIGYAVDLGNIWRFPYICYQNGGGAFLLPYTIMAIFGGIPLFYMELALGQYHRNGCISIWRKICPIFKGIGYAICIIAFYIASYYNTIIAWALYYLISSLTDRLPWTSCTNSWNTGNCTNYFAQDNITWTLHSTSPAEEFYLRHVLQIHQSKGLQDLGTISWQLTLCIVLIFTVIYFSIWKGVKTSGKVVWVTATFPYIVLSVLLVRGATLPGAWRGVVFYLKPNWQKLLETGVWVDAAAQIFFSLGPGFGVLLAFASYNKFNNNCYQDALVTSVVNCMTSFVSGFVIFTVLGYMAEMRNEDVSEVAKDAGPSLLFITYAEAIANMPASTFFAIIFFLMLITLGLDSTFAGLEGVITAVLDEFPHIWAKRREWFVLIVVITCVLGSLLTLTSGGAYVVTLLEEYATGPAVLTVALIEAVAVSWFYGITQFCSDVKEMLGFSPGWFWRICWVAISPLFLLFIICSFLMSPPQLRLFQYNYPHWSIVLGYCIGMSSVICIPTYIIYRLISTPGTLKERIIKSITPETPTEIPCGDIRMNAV

As to `CN(C)C1(Cc2ccc(Cl)cc2)CCC(NC(=O)CCC(=O)N2CCN(C(=O)c3cccc(Cl)c3)CC2)CC1` (centres unmarked) [Example 134, 4-[4-(3-chloro-benzoyl)-piperazin-1-yl]-N-[4-(4-chloro-benzyl)-4-dimethylamino-cyclohexyl]-4-oxo-butyramide], the inhibition at 10 µM was determined as 92% on 5HT-uptake and 101% at NA-uptake.
Taken in the same sequence, the figures for `COc1ccc(CNC(=O)CCC(=O)NC2CCC(Cc3cccc(C)c3)(N(C)C)CC2)cc1` (centres unmarked) [Example 85, N-[4-dimethylamino-4-(3-methyl-benzyl)-cyclohexyl]-N′-(4-methoxy-benzyl)-succinamide] were 94% and 100%.
Taken in the same sequence, the figures for `COc1ccc(CN2CCN(C(=O)CCC(=O)NC3CCC(Cc4cccc(C)c4)(N(C)C)CC3)CC2)cc1F` (centres unmarked) [Example 35, N-[4-dimethylamino-4-(3-methyl-benzyl)-cyclohexyl]-4-[4-(3-fluoro-4-methoxy-benzyl)-piperazin-1-yl]-4-oxo-butyramide] were 94% and 95%.
For `CCOC(=O)C(C)NC(=O)CCC(=O)NC1CCC(Cc2cccc(Cl)c2)(N(C)C)CC1` (centres unmarked) [Example 30, 2-{3-[4-(3-chloro-benzyl)-4-dimethylamino-cyclohexylcarbamoyl]-propionylamino}-propanoic acid ethylester], in that order: 93% and 96%.
`Cc1ccc(CCNC(=O)CCC(=O)NC2CCC(Cc3ccc(C)cc3)(N(C)C)CC2)cc1` (centres unmarked) [Example 168, N-[4-dimethylamino-4-(4-methyl-benzyl)-cyclohexyl]-N′-(2-p-tolyl-ethyl)-succinamide]: the inhibition at 10 µM at 5HT-uptake was 92%; at NA-uptake, 96%.
Taken in the same sequence, the figures for `Cc1ccc(CC2(N(C)C)CCC(NC(=O)CCC(=O)Nc3ccc(OCc4ccccc4)cc3)CC2)cc1` (centres unmarked) [Example 101, N-(4-benzyloxy-phenyl)-N′-[4-dimethylamino-4-(4-methyl-benzyl)-cyclohexyl]-succinamide] were 94% and 77%.
Take `Cc1cccc(CC2(N(C)C)CCC(NC(=O)CCC(=O)N(C)CC(=O)OCc3ccccc3)CC2)c1` (centres unmarked) [Example 22, ({3-[4-dimethylainino-4-(3-methyl-benzyl)-cyclohexylcarbamoyl]-propionyl}-methyl-amino)-acetic acid benzyl ester]: the “5HT-uptake [10 μM], % inhibition” value on 5HT-uptake stood at 95%. The “NA-uptake [10 μM], % inhibition” value at NA-uptake came to 93%.
As for `COc1ccc(CNC(=O)CCC(=O)NC2CCC(Cc3ccc(Cl)cc3)(N(C)C)CC2)c(OC)c1` (centres unmarked) [Example 68, N-[4-(4-chloro-benzyl)-4-dimethylamino-cyclohexyl]-N′-(2,4-dimethoxy-benzyl)-succinamide], the inhibition at 10 µM at 5HT-uptake turned out to be 98%; on NA-uptake, 85%.
Taken in the same sequence, the figures for `Cc1cccc(CC2(N(C)C)CCC(NC(=O)CCC(=O)NC(C)c3ccc(F)cc3)CC2)c1` (centres unmarked) [Example 112, N-[4-dimethylamino-4-(3-methyl-benzyl)-cyclohexyl]-N′-[1-(4-fluoro-phenyl)-ethyl]-succinamide] were 96% and 101%.
For `CCOC(=O)N1CCN(C(=O)CCC(=O)NC2CCC(Cc3cccc(Cl)c3)(N(C)C)CC2)CC1` (centres unmarked) [Example 84, 4-{3-[4-(3-chloro-benzyl)-4-dimethylamino-cyclohexylcarbamoyl]-propionyl}-piperazin-1-carboxylic acid ethylester], in that order: 95% and 96%.
For `Cc1cnc(C(=O)N2CCN(C(=O)CCC(=O)NC3CCC(Cc4ccc(Cl)cc4)(N(C)C)CC3)CC2)cn1` (centres unmarked) [Example 14, N-[4-(4-chloro-benzyl)-4-dimethylamino-cyclohexyl]-4-[4-(5-methyl-pyrazin-2-carbonyl)-piperazin-1-yl]-4-oxo-butyramide], in that order: 95% and 78%.
For `CN(CCc1c[nH]c2ccccc12)C(=O)CCC(=O)NC1CCC(Cc2cccc(Cl)c2)(N(C)C)CC1` (centres unmarked) [Example 53, N-[4-(3-chloro-benzyl)-4-dimethylamino-cyclohexyl]-N′-[2-(1H-indol-3-yl)-ethyl]-N′-methyl-succinamide], the inhibition at 10 µM on 5HT-uptake is 93%; on NA-uptake, 94%.
Regarding `COc1cc(CN2CCN(C(=O)CCCC(=O)NC3CCC(Cc4ccccc4)(N(C)C)CC3)CC2)cc2c1OCO2` (centres unmarked) [Example 54], the “5HT-uptake [10 μM], % inhibition” value at 5HT-uptake is given as 95%. Also, the “NA-uptake [10 μM], % inhibition” value at NA-uptake was found to be 90%.
`Cc1ccc(CC2(N(C)C)CCC(NC(=O)CCC(=O)N3CCN(c4cccc(C)c4C)CC3)CC2)cc1` (centres unmarked) [Example 58, N-[4-dimethylamino-4-(4-methyl-benzyl)-cyclohexyl]-4-[4-(2,3-dimethyl-phenyl)-piperazin-1-yl]-4-oxo-butyramide]: the inhibition at 10 µM on 5HT-uptake came out at 93%; at NA-uptake, 79%.
For `CN(CCc1c[nH]c2ccccc12)C(=O)CCC(=O)NC1CCC(Cc2ccc(Cl)cc2)(N(C)C)CC1` (centres unmarked) [Example 57, N-[4-(4-chloro-benzyl)-4-dimethylamino-cyclohexyl]-N′-[2-(1H-indol-3-yl)-ethyl]-N′-methyl-succinamide], in that order: 93% and 100%.
Taken in the same sequence, the figures for `CN(C)C1(Cc2ccc(Cl)cc2)CCC(NC(=O)CCC(=O)NCCc2cccc(F)c2)CC1` (centres unmarked) [Example 88, N-[4-(4-chloro-benzyl)-4-dimethylamino-cyclohexyl]-N′-[2-(3-fluoro-phenyl)-ethyl]-succinamide] were 97% and 102%.
Taken in the same sequence, the figures for `Cc1cccc(CC2(N(C)C)CCC(NC(=O)CCC(=O)N3CCN(C(=O)c4cccc(Cl)c4)CC3)CC2)c1` (centres unmarked) [Example 107, 4-[4-(3-chloro-benzoyl)-piperazin-1-yl]-N-[4-dimethylamino-4-(3-methyl-benzyl)-cyclohexyl]-4-oxo-butyramide] were 95% and 106%.
As for `Cc1ccc(CC2(N(C)C)CCC(NC(=O)CCC(=O)N3CCC(CNC(=O)C(F)(F)F)CC3)CC2)cc1` (centres unmarked) [Example 51, N-[4-dimethylamino-4-(4-methyl-benzyl)-cyclohexyl]-4-oxo-4-{4-[(2,2,2-trifluoro-acetylamino)-methyl]-piperidin-1-yl}-butyramide], the inhibition at 10 µM at 5HT-uptake amounted to 92%; at NA-uptake, 77%.
For `CN(Cc1cccnc1)C(=O)CCC(=O)NC1CCC(Cc2ccc(Cl)cc2)(N(C)C)CC1` (centres unmarked) [Example 72, N-[4-(4-chloro-benzyl)-4-dimethylamino-cyclohexyl]-N′-methyl-N′-pyridin-3-ylmethyl-succinamide], in that order: 95% and 70%.
Taken in the same sequence, the figures for `CC1CCN(C(=O)CCC(=O)NC2CCC(Cc3cccc(Cl)c3)(N(C)C)CC2)CC1` (centres unmarked) [Example 92, N-[4-(3-chloro-benzyl)-4-dimethylamino-cyclohexyl]-4-(4-methyl-piperidin-1-yl)-4-oxo-butyramide] were 92% and 89%.
On to `CCOC(=O)CCNC(=O)CCC(=O)NC1CCC(Cc2ccc(C)cc2)(N(C)C)CC1` (centres unmarked) [Example 9, 3-{3-[4-dimethylamino-4-(4-methyl-benzyl)-cyclohexylcarbamoyl]-propionylamino}-propanoic acid ethylester], for which the inhibition at 10 µM at 5HT-uptake was 93%; on NA-uptake it was 91%.
Taken in the same sequence, the figures for `Cc1cccc(CC2(N(C)C)CCC(NC(=O)CCC(=O)N3CCN(c4ccc(Cl)cc4)CC3)CC2)c1` (centres unmarked) [Example 113, 4-[4-(4-chloro-phenyl)-piperazin-1-yl]-N-[4-dimethylamino-4-(3-methyl-benzyl)-cyclohexyl]-4-oxo-butyramide] were 97% and 94%.
Taken in the same sequence, the figures for `CN(C)C1(Cc2cccc(Cl)c2)CCC(NC(=O)CCC(=O)NCC2CCCO2)CC1` (centres unmarked) [Example 29, N-[4-(3-chloro-benzyl)-4-dimethylamino-cyclohexyl]-N′-(tetrahydro-furan-2-ylmethyl)-succinamide] were 94% and 91%.
For the compound `CN(C)C1(Cc2cccc(Cl)c2)CCC(NC(=O)CCC(=O)N2CCc3[nH]c4ccc(F)cc4c3C2)CC1` (centres unmarked) [Example 8, N-[4-(3-chloro-benzyl)-4-dimethylamino-cyclohexyl]-4-(8-fluoro-1,3,4,5-tetrahydro-pyrido[4,3-b]indol-2-yl)-4-oxo-butyramide], the inhibition at 10 µM was found to be 92% at 5HT-uptake and 85% at NA-uptake.
For `CN(C)C1(Cc2ccc(Cl)cc2)CCC(NC(=O)CCC(=O)NCCc2c[nH]c3ccccc23)CC1` (centres unmarked) [Example 52, N-[4-(4-chloro-benzyl)-4-dimethylamino-cyclohexyl]-N′-[2-(1H-indol-3-yl)-ethyl]-succinamide], in that order: 96% and 88%.
Taken in the same sequence, the figures for `CN(C)C1(Cc2cccc(Cl)c2)CCC(NC(=O)CCC(=O)N2CC=CCC2)CC1` (centres unmarked) [Example 39, N-[4-(3-chloro-benzyl)-4-dimethylamino-cyclohexyl]-4-(3,6-dihydro-2H-pyridin-1-yl)-4-oxo-butyramide] were 94% and 90%.
Taken in the same sequence, the figures for `CN(C)C1(Cc2ccc(Cl)cc2)CCC(NC(=O)CCC(=O)N2CC=C(c3ccc(F)cc3)CC2)CC1` (centres unmarked) [Example 104, N-[4-(4-chloro-benzyl)-4-dimethylamino-cyclohexyl]-4-[4-(4-fluoro-phenyl)-3,6-dihydro-2H-pyridin-1-yl]-4-oxo-butyramide] were 93% and 84%.
Consider `Cc1ccc(CC2(N(C)C)CCC(NC(=O)CCC(=O)N(C)CCNC(=O)C(F)(F)F)CC2)cc1` (centres unmarked) [Example 11, N-[4-dimethylamino-4-(4-methyl-benzyl)-cyclohexyl]-N′-methyl-N′-[2-(2,2,2-trifluoro-acetylamino)-ethyl]-succinamide], for which the inhibition at 10 µM on 5HT-uptake came out at 92%; on NA-uptake it was 77%.
